Blank lines part the entries; values can stand above or below the molecule they belong to. Positions of bridges follow the written chain, without caps; N, C: chain ends. Residues, ends and D or L forms follow the SMILES beside them. No end group written: not given here.
What was measured:
IGFBP-3 [1] = target: T1, IGFBP-3 (Homo sapiens, UniProt P17936); assay: BIAcore competition assay, IGFBP-3 binding to immobilized IGF-II; settings: 20 nM IGFBP-3; approximately 1500 RU immobilized IGF-II; read-out: IC50, inhibition of IGFBP-3 binding to IGF-II (BIAcore)
T1 sequence (P17936 28-291): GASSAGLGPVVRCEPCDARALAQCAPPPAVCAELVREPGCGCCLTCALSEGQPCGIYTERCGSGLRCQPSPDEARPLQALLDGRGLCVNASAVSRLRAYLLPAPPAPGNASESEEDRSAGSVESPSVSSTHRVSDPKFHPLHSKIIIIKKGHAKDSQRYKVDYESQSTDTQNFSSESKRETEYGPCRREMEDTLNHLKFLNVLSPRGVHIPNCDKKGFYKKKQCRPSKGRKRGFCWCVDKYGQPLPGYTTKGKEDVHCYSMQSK
Protocol: D. BIAcore™ Competition Assay (for IGFBP-3 Binders)
IGF-II was immobilized on a dextran chip for inhibition assays using a BIAcore™ 2000 surface-plasmon-resonance device (BIAcore, Inc., Piscataway, N.J.) to measure free binding protein. IGF-II was biotinylated as described above, and injected over a chip to which streptavidin had been coupled (BIAcore, Inc.) to give approximately 1500 RU of immobilized IGF-II. […] Serial dilutions of peptide were mixed with a constant concentration (20 nM) of IGFBP-3. After incubation for ≧1 hour at room temperature, an aliquot of 20 μl was injected at a flow rate of 20 μl/min over the IGF-II chip. Following the injection, a response reading was taken to measure the relative amount of IGFBP-3 bound to the IGF-II.

IGFBP-3 [2] = target: T1, IGFBP-3; assay: BIAcore competition assay, IGFBP-3 binding to immobilized IGF-I; settings: 40 nM IGFBP-3; 400 to 800 RU immobilized IGF-I; read-out: BIAcore Assay IC50, inhibition of IGF-I binding to IGFBP-3
Protocol: A. BIAcore™ Competition Assay (for IGFBP-3 Binders)
IGF-I was immobilized on a dextran chip for inhibition assays using a BIAcore™ 2000 surface-plasmon-resonance device (BIAcore, Inc., Piscataway, N.J.) to measure free binding protein. […] Serial dilutions of peptide were mixed with a constant concentration (40 nM) of IGFBP-3. After incubation for >1 hour at room temperature, an aliquot of 20 μL was injected at a flow rate of 20 μL/min over the IGF-I chip. Following the injection, a response reading was taken to measure the relative amount of IGFBP-3 bound to the IGF-I.

IGFBP-1 [3] = target: T2, IGFBP-1 (Homo sapiens, UniProt P08833); assay: BIAcore competition assay, IGFBP-1 binding to IGF-I; settings: for IGF-I Inhibition IC50 (114)/IC50 (mut) / IGF-I Inhibition IC50 (116)/IC50 (mut): g3 bp1-01 selectants by BIAcore, higher = better; for IGF-I Inhibition IC50 (114)/IC50 (mut): relative to bp1-14; for IGF-I Inhibition IC50 (116)/IC50 (mut): relative to bp1-16
T2 construct: biotin (chemical label, EZ-LINK NHS-SS-Biotin)
T2 sequence (P08833 26-259): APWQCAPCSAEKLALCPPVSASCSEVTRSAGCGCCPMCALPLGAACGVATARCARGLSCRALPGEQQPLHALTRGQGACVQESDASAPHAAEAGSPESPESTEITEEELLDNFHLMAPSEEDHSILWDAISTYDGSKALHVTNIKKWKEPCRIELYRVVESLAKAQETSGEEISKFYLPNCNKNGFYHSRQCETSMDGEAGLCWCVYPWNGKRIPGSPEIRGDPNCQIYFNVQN
Protocol: Two series of synthetic peptide variants were generated to determine which side chains of the bp1-01 peptide might contribute directly to binding IGFBP-1. In the first series an alanine-scanning approach (Cunningham and Wells, Science, 244: 1081-1085 (1989)) was used to remove that portion of each side chain beyond the beta carbon. The contribution of these atoms to the free energy of binding of the peptide to IGFBP-1 was then assessed by measuring the potency (IC50) of the variant for inhibiting IGFBP-1 binding to IGF-I or IGF-II in a BIAcore™competition assay, analogous to that described for IGFBP-3 (see Example 7).
(§1) Substitutions at the N-terminus or C-terminus yielded affinity improvements. […] All of these peptides had similar or improved apparent affinity for IGFBP-1 as compared with bp1-01 and bp1-02 and are thus expected to increase the availability of IGF-I in an in vitro cell culture assay.

IGFBP-1 [4] = target: T2, IGFBP-1; assay: Biotin-BP plate (ELISA) assay, biotinylated IGFBP-1 binding to IGF-I; settings: C-terminal bp1-01 variants by ELISA
Protocol: 1. Biotin-BP Assay (for IGFBP-1 Binders)
For inhibition of IGFBP-1 binding, IGFBP-1 (as well as IGFBP-3 as a control) were biotinylated as described above. MAXISORP™plates were coated and blocked as described above, using 2 μg/mL IGF-I. In a separate plate, serial dilutions of peptide were premixed with a constant concentration (20 nM) of biotinylated IGFBP-1. After 20 min. at room temperature, the mixture was added to the IGF-I plate. The peptide/IGFBP mix was then removed and the plate was washed ten times with PBS buffer containing 0.05% TWEEN-20™ surfactant. Bound biotin-IGFBP-1 was then detected using streptavidin-conjugated horse radish peroxidase, and a chromogenic substrate.
A second series of peptides made use of non-natural amino acids to probe whether other structural features such as an added methyl group at the alpha carbon, or an isomer (D-alanine) could affect peptide binding to IGFBP-1.
as §1

hypophysectomized rats = assay: Long-term administration to hypophysectomized rats; assay type: in vivo, rat; settings: one week
Text: Young female SD rats were hypophysectomized at Taconic Laboratories and delivered several days later. The rats were then weighed frequently and those whose weight increased or decreased by more than 7 grams between 2 and 3 weeks following hypophysectomy were excluded from the study. Twenty-five rats were grouped randomly into five groups based on their body weight, and then randomly assigned to cages, with four rats per cage. The animals were allowed ad libitum access to food and water and housed in a room controlled for temperature and lighting.
1) Excipient pump, excipient injections;
2) (Leu^24,Ala^31)hIGF-I (10 μg/day, by SC minipump), excipient injections;
3) (Leu^24,Ala^31)hIGF-I (50 μg/day, by SC minipump), excipient injections;
4) Recombinant human GH (NUTROPIN™ brand from Genentech, Inc., 20 μg/day, by SC injection, two injections each of 10 μg/day), excipient minipump; or
5) (Leu^24,Ala^31)hIGF-I (50 μg/day, by SC minipump) plus recombinant human GH (20 μg/day, by SC injection, two injections each of 10 μg/day).
The rats were dosed for one week.
The mutant (Leu^24,Ala^31)hIGF-I was administered by osmotic minipumps (ALZET 2001™, Alza, Palo Alto, Calif.), which were placed in a subcutaneous tunnel in the dorsal neck region of the rats while they were anesthetized with KETAMINE™/XYLAZINE™ anesthesia. The pumps were filled with solutions so that the calculated daily dose was 50 μg or 10 μg, assuming that 24 μl of solution was delivered each day for one week.
Recombinant human GH was administered for one week by twice daily SC injections of 10 μg in 100 μl volume.
Body weights were measured daily in the morning. At the end of the week of dosing the animals were anesthetized via CO2 and exsanguinated via cardiac puncture. The remaining blood was allowed to clot and serum was separated and stored for further analysis.
(§2) Spleen, thymus, heart, liver, kidney, and perirenal fat were removed and weighed. The tibia was removed and fixed in neutral buffered formalin for histological measurement of epiphyseal plate width.
Serum chemistries were measured on an automated Chem I analyzer. Serum insulin concentration was measured using an RIA Kit supplied by Linco, Inc. To measure the IGF-I concentrations the serum was extracted using acid ethanol and the supernatant diluted to neutrality and assayed for IGF-I by RIA.
Tibia were sectioned longitudinally, stained with Toluene Blue, and mounted on microscope slides. The tibial epiphyseal plate width was measured using an ocular micrometer attached to a microscope.
Data were analyzed statistically by analysis of variance using one factor and two factor ANOVA.

dwarf rats = assay: Long-term administration to GH-deficient dwarf (dw/dw) rats; assay type: in vivo, rat
Text: Young female dwarf rats (11-12 wk of age, 115-140 g) were bred by homozygous mating (Charles Rivers Laboratories) and delivered to the Genentech Animal House where they were housed five per cage on polystyrene chips and fed a standard animal chow and water ad libitum, and kept in a room of constant humidity and with controlled temperature and lighting. The animals were weighed, and based on uniformity of body weight, 37 of the animals were selected and randomized into treatment groups and cages to give six treatment groups of equal initial body weights (approximately 120 g).
The study consisted of six groups of rats with six or seven rats per group.
The mutant (Leu^24,Ala^31)hIGF-I and native sequence recombinant human IGF-I were administered by osmotic minipumps (ALZET 2001™, Alza, Palo Alto, Calif.) which were placed in a subcutaneous tunnel in the dorsal neck region while the rats were anesthetized with KETAMINE/XYLAZINE™ anesthesia. The pumps were filled with solutions so that the calculated daily dose was 120 μg per rat per day (1 mg/kg/day), assuming that the pump delivered as per the manufacturer's description (24 μl of solution per day).
Recombinant human GH (50 μg/day) was administered for eight days by twice daily sc injection, with each injection being of 25 μg in a volume of 100 μl.
Body weights were measured daily in the morning. After 8 days the animals were anesthetized using CO2 and exsanguinated by cardiac puncture. The remaining blood was allowed to clot and serum was separated and stored for further analysis.
as §2
Serum chemistries were measured using a TECHNICON CHEM I PLUS™ analyzer. Serum insulin concentration was measured using an RIA kit supplied by Linco, Inc. To measure the IGF-I concentrations the serum was extracted using acid ethanol and the supernatant diluted to neutrality and assayed for IGF-I by RIA. The concentration of rat IGF-I in serum extract was measured by RIA using a kit from Diagnostic Systems Laboratories, Inc. Human IGF-I concentration was measured by RIA at Genentech, Inc.
Tibia were sectioned longitudinally, stained with TOLULENE BLUE™ stain and mounted on microscope slides. The tibial epiphyseal plate width was measured using an ocular micrometer attached to a microscope.
Data were analyzed statistically by analysis of variance using one-factor ANOVA followed by Duncan's Range Test.

[5] = serum at sacrifice, 8 days, Means ± SEM

IGF-I Inhibition IC50 (114)/IC50 (mut) (IGFBP-1 [3]): 2.6 | IGF-I Inhibition IC50 (116)/IC50 (mut) (IGFBP-1 [3]): 12
Molecule: CC(C)C[C@@H]1NC(=O)[C@H](Cc2c[nH]c3ccccc23)NC(=O)[C@H](CCC(N)=O)NC(=O)[C@H](CC(C)C)NC(=O)[C@@H]2CCCN2C(=O)CNC(=O)[C@H](C)NC(=O)[C@H](CCCNC(=N)N)NC(=O)[C@@H](NC(=O)[C@@H](NC(=O)[C@H](CCCNC(=N)N)NC(=O)[C@H](C)NC(=O)[C@@H](N)CCC(=O)O)C(C)C)CSSC[C@@H](C(=O)N[C@@H](CCC(=O)O)C(=O)N[C@@H](CCCCN)C(=O)N[C@@H](Cc2ccc(O)cc2)C(=O)N[C@@H](Cc2ccccc2)C(N)=O)NC1=O [bp1-20] (H-EARVCRAGPLQWLCEKYF-NH2; disulfide 5-14)

affinity improvement compared with bp1-14 (18-mer) (IGFBP-1 [3]; IGFBP-1): 3 fold | IGF-I Inhibition IC50 (114)/IC50 (mut) (IGFBP-1 [3]): 3.2 | IGF-I Inhibition IC50 (116)/IC50 (mut) (IGFBP-1 [3]): 15
Molecule: CC(C)C[C@@H]1NC(=O)[C@H](Cc2c[nH]c3ccccc23)NC(=O)[C@H](CCC(N)=O)NC(=O)[C@H](CC(C)C)NC(=O)[C@@H]2CCCN2C(=O)CNC(=O)[C@H](C)NC(=O)[C@H](CCCNC(=N)N)NC(=O)[C@@H](NC(=O)CNC(=O)[C@@H](NC(=O)[C@H](CCC(=O)O)NC(=O)[C@@H](N)CO)C(C)C)CSSC[C@@H](C(=O)N[C@@H](CCC(=O)O)C(=O)N[C@@H](CCCCN)C(=O)N[C@@H](Cc2ccc(O)cc2)C(=O)N[C@@H](Cc2ccccc2)C(=O)N[C@@H](CO)C(=O)N[C@H](C(=O)N[C@@H](Cc2ccc(O)cc2)C(N)=O)[C@@H](C)O)NC1=O [bp1-21A] (H-SEVGCRAGPLQWLCEKYFSTY-NH2; disulfide 5-14)

IGF-I Inhibition IC50 (mut)/IC50 (wt) (IGFBP-1 [4]): >1000
Molecule: CRAGPLQWLCEK [bp1-17]

affinity improvement compared with bp1-16 (IGFBP-1 [3]; IGFBP-1): ~3 fold
Molecule: CRAGPLQWLCEKYFSTY-nh2 (CRAGPLQWLCEKYFSTY-NH2; disulfide 1-10) [bp1-21B]

The next lines start with the molecule.

Molecule: CC[C@H](C)[C@@H]1NC(=O)[C@H](Cc2ccc(O)cc2)NC(=O)CNC(=O)[C@H](CCC(N)=O)NC(=O)[C@H](CC(=O)O)NC(=O)[C@H](Cc2c[nH]cn2)NC(=O)[C@H](CCCNC(=N)N)NC(=O)[C@H](CC(=O)O)NC(=O)[C@H](Cc2c[nH]c3ccccc23)NC(=O)[C@@H](NC(=O)[C@@H](NC(=O)[C@H](CCC(=O)O)NC(=O)[C@H](Cc2c[nH]c3ccccc23)NC(=O)[C@H](C)NC(=O)[C@@H](N)C(C)C)C(C)C)CSSC[C@@H](C(=O)N[C@H](C(=O)N[C@H](C(=O)N[C@@H](CC(=O)O)C(=O)N[C@@H](CO)C(=O)O)[C@@H](C)O)[C@@H](C)O)NC1=O [BP3-4D3.11] (H-VAWEVCWDRHDQGYICTTDS-OH; disulfide 6-16; N-terminus and C-terminus assumed)
IC50 (IGFBP-3 [1]): 1000 nM | IC50 (IGFBP-3 [2]): < 10 µM

Molecule: CRAGPLQWLCE [bp1-04]
IGF-I Inhibition IC50 (mut)/IC50 (wt) (IGFBP-1 [4]): >1000

Molecule: hGH: Recombinant human GH (NUTROPIN brand from Genentech, Inc.)
body weight gain (hypophysectomized rats; IGF agonist 50 μg/day SC minipump, hGH 20 μg/day SC, or both): significant increase in body weight | absolute thymus weight (hypophysectomized rats; IGF agonist 50 μg/day, hGH 20 μg/day, or both): almost equal | absolute and relative heart weight (hypophysectomized rats; IGF agonist 10 and 50 μg, hGH 20 μg/day, or combination): slightly increased absolute heart weight and caused a fall in relative heart weight | absolute spleen weight (hypophysectomized rats; IGF mutant 10 and 50 μg/day, hGH 20 μg/day, or hGH plus 50 μg/day): greater than that to the IGF agonist | epiphyseal plate width (hypophysectomized rats; rhGH 20 μg/day): around 400 μm | epiphyseal plate widths (dwarf rats; 8 days): significantly (p<0.05) increased | body weight gain (dwarf rats; Day 5, hGH 50 μg/d, IGF mutant 120 μg/day): 12.4 ± 0.9 g | AST (dwarf rats; [5]): 123 ± 13 U/l | BUN (dwarf rats; [5]): 15.6 ± 0.7 mg/dL | CK (dwarf rats; [5]): 184 ± 29 u/l | Creatinine (dwarf rats; [5]): 0.33 ± 0.02 mg/dL | Glucose (dwarf rats; [5]): 192 ± 10 mg/dL | Insulin (dwarf rats; [5]): 1.48 ± 0.29 ng/mL

From patent US6632794B1, “Insulin-like growth factor agonist molecules” (Genentech, Inc., priority 1997, dated 2003)
